{"source": "PubChem BioAssay AID1996", "data": [{"settings": "buffer; pH 7.4; 200.0 µM", "units": {"solubility kinetic": "µg/mL"}, "values": [{"smiles": "CS(=O)(=O)N1CCN(c2ccc(NC(=O)c3ccccc3)cc2)CC1", "solubility kinetic": 1}, {"smiles": "C=CCCC(=O)N1CCCC(C(=O)c2cccc(OC)c2)C1", "note": "(centres undefined)", "solubility kinetic": 40.7}, {"smiles": "O=C1NCCCCC1NS(=O)(=O)c1ccc(F)c(F)c1", "note": "(centres undefined)", "solubility kinetic": 43.1}, {"smiles": "CCOc1ccc(NC(=O)NC2CC(=O)N(c3ccc(OC)cc3)C2)cc1", "note": "(centres undefined)", "solubility kinetic": 7.7}, {"smiles": "CC1CCc2sc3ncnc(N4CCN(CCO)CC4)c3c2C1", "note": "(centres undefined)", "solubility kinetic": "> 49.9"}, {"smiles": "CC1c2ccccc2N(NC(=O)Cc2ccccc2)C1C", "note": "(centres undefined)", "solubility kinetic": "> 42.1"}, {"smiles": "O=C1CCC(=O)N1OCCOc1ccccc1", "solubility kinetic": "> 35.3"}, {"smiles": "CSCCC1NC(=O)N(CC(=O)Nc2cccc(S(=O)(=O)N3CCCCCC3)c2)C1=O", "note": "(centres undefined)", "solubility kinetic": 52.3}, {"smiles": "Cc1ccc(N=CNc2ccc(C)cc2C)c(C)c1", "solubility kinetic": 35.2}, {"smiles": "COc1cc(NC(c2ccccc2)c2ccccc2)cc(OC)c1OC", "solubility kinetic": "> 52.4"}, {"smiles": "CCN(C(=S)Nc1cccnc1)c1cccc2ccccc12", "solubility kinetic": 39.9}, {"smiles": "O=C(CSc1nncs1)NNC(=O)c1ccccc1Br", "solubility kinetic": "> 56"}, {"smiles": "CCOc1ncccc1C(=O)Nc1ncc(C)s1", "solubility kinetic": 15.5}, {"smiles": "Cc1cc(NC(=O)CSc2nc3ccccc3n2CC(C)C)no1", "solubility kinetic": 7.3}, {"smiles": "CSc1ccc(CNC(C)C(O)c2ccccc2)cc1.Cl", "note": "(centres undefined)", "solubility kinetic": "> 48.6"}, {"smiles": "Cc1noc(-c2ccccc2)c1NC(=O)Nc1ccccc1", "solubility kinetic": "> 44"}, {"smiles": "O=C(NC1CCCN(CCc2ccccc2)C1)c1c(F)cccc1F", "note": "(centres undefined)", "solubility kinetic": "> 51.7"}, {"smiles": "COc1ccc(NC(=O)Nc2cc(C(C)(C)C)on2)cc1OC", "solubility kinetic": "> 47.9"}, {"smiles": "O=C(CCn1ccnc1)Nc1cc(Cl)ccc1O", "solubility kinetic": "> 39.9"}, {"smiles": "O=C(O)/C=C/C(=O)c1c(-c2ccccc2)[nH]c2ccccc12", "solubility kinetic": "> 43.7"}, {"smiles": "CC(=O)N/C(N)=N/c1nc2cc(C)ccc2o1", "solubility kinetic": 3.3}, {"smiles": "CSCCCNC(=S)N1CCc2ccccc2C1", "solubility kinetic": "> 42.1"}, {"smiles": "CC1CC(NC(=O)CC#N)CC(C)(C)C1", "note": "(centres undefined)", "solubility kinetic": "> 31.2"}, {"smiles": "CCN(CC(=O)Nc1ccccc1OC)C(=O)CCc1ccccc1", "solubility kinetic": 46}, {"smiles": "CC(=O)c1ccc(NC(=O)CSc2nc3ccccc3c(=O)n2CCCN2CCOCC2)cc1", "solubility kinetic": "> 72.1"}, {"smiles": "COc1ccc(/C=C/C(=O)N2CCCC2)cc1OC", "solubility kinetic": "> 39.2"}, {"smiles": "O=C(NCC(O)COc1ccc([N+](=O)[O-])cc1)c1ccccc1", "note": "(centres undefined)", "solubility kinetic": 24.8}, {"smiles": "O=C(NCCN1CCOCC1)c1ccc(Cl)cc1O", "solubility kinetic": "> 42.7"}, {"smiles": "COc1ccc(OC)c(NC(=S)Nc2ccccc2)c1", "solubility kinetic": "> 43.3"}, {"smiles": "CCOC(=O)C1=C(C)N=C2SCCC(=O)N2[C@@H]1c1cccs1", "solubility kinetic": 39.1}, {"smiles": "CCOC(=O)c1cccc(NC(=S)NC(=O)c2cccnc2)c1", "solubility kinetic": 8.1}, {"smiles": "CCN(CC(=O)NCc1cccs1)C(=O)c1cc(=O)[nH]c2ccccc12", "solubility kinetic": "> 55.4"}, {"smiles": "C=CCn1c(C)c(C=C2C(=O)NC(=O)NC2=O)c2ccccc21", "solubility kinetic": "> 46.4"}, {"smiles": "CC12CCC(=O)N1C(C(=O)Nc1cccc(F)c1)CS2", "note": "(centres undefined)", "solubility kinetic": "> 44.2"}, {"smiles": "COC(=O)c1cc(C(=O)OCC(=O)Nc2ccc(N3CCOCC3)cc2)cc([N+](=O)[O-])c1", "solubility kinetic": 11.8}, {"smiles": "O=C(CSc1ccc([N+](=O)[O-])cn1)Nc1ccc2c(c1)OCCO2", "solubility kinetic": 0.7}, {"smiles": "COc1ccc(NC(=O)Nc2ccccc2SC)c(OC)c1", "solubility kinetic": 0.7}, {"smiles": "NC(=O)c1ccccc1NC(=O)c1ccc2c(c1)OCO2", "solubility kinetic": 3.1}, {"smiles": "CC(C)CNC(=S)N1CCC(NC(=O)c2ccco2)CC1", "solubility kinetic": 41.9}, {"smiles": "Cc1cccc(NS(=O)(=O)c2cccc([N+](=O)[O-])c2)n1", "solubility kinetic": "> 44"}, {"smiles": "COc1ccc(-c2cn(-c3ccc(C)c(Cl)c3)c(=S)[nH]2)cc1OC", "solubility kinetic": 11.9}, {"smiles": "O=C(NCCCCNC(=O)c1ccccc1F)c1ccccc1F", "solubility kinetic": "> 49.9"}, {"smiles": "Cc1cccc(N2CC(C(=O)Nc3nccs3)CC2=O)c1C", "note": "(centres undefined)", "solubility kinetic": 42}, {"smiles": "CC(=O)N1CCN(S(=O)(=O)c2cccc(C(=O)OCC(=O)N(Cc3ccccc3)C(C)(C)C)c2)CC1", "solubility kinetic": 60.5}, {"smiles": "COc1ccc(OCC(=O)N2c3ccccc3CC2C)c([N+](=O)[O-])c1", "note": "(centres undefined)", "solubility kinetic": 17.3}, {"smiles": "CC(C)(C)c1nnc(NS(=O)(=O)c2ccc([N+](=O)[O-])cc2)s1", "solubility kinetic": "> 51.4"}, {"smiles": "Cc1cnc(NC(=O)c2sc(Nc3ccccc3)nc2N)o1", "solubility kinetic": 6.4}, {"smiles": "CSc1ccc(Cl)c(C(=O)N2CCOc3ccccc32)c1", "solubility kinetic": 13.5}, {"smiles": "C=CCNC(=O)COC(=O)CCC(=O)c1cccs1", "solubility kinetic": "> 42.2"}, {"smiles": "O=C(Nc1cccc(S(=O)(=O)NCc2ccco2)c1)c1cccc(Cl)c1", "solubility kinetic": 2.5}, {"smiles": "Cc1ccc(C(=O)NC2(O)C(=O)c3ccccc3C2=O)cc1C", "solubility kinetic": "> 46.4"}, {"smiles": "CSc1nsc(SCC(=O)Nc2ccc(F)cc2F)n1", "solubility kinetic": "> 50"}, {"smiles": "O=C(Cn1cnc2ccccc21)Nc1cccc([N+](=O)[O-])c1", "solubility kinetic": 42.8}, {"smiles": "COc1cccc(C(=O)Nc2c[nH]c(=O)[nH]c2=O)c1", "solubility kinetic": 36.1}, {"smiles": "COc1cc(NC(=O)C2CCN(c3cnccn3)CC2)cc(OC)c1", "solubility kinetic": 47.1}, {"smiles": "COc1ccccc1OCC(=O)NC1CC(C)(C)NC(C)(C)C1", "solubility kinetic": 41.7}, {"smiles": "COC(=O)c1cc(OC)c(OC)cc1NC(=S)N1CCOCC1", "solubility kinetic": 39.7}, {"smiles": "COCCNC(=O)Cn1cc(C(=O)c2ccco2)c2ccccc21", "solubility kinetic": "> 49"}, {"smiles": "O=C(Cc1cccs1)NCCc1csc(-c2ccccc2)n1", "solubility kinetic": "> 49.3"}]}]}
